Measurements published in patent publication US20090307784A1, “Methods of Analysing Cell Behaviour” (Medical Research Council, priority 2005, published 2009).

Assays:
[1] = system: transit amplifying cell clones and stem cell clones in tail skin epidermis; experiment: Topical treatment of tail skin of induced Ahcre^ERT R26^EYFP/wt mice, clonal fate by wholemount confocal imaging; type: in vivo, mouse; conditions: applied topically to tail skin, compared with vehicle only control
Procedure: The generation of Ahcre^ERT and R26^EYFP/EYFP mice has been described previously (Kemp et al (2004) Nucleic Acids Res 32, e92; Srinivas et al (2001) BMC Dev Biol 1, 4). To induce ere expression AhcreERT R26^EYFP/wt heterozygote animals were given a single intraperitoneal injection of 80 mg/kg β-napthoflavone (SIGMA) and 1 mg tamoxifen free base (MP Biomedicals) dissolved in corn oil. To prepare epidermal wholemounts, mice were killed, and then tail skin was cut into 0.5 cm sections and incubated in 5 mM EDTA/PBS for 4 h at 37 C. Epidermis was then peeled of the dermis and fixed in 4% paraformaldehyde for 1 h at room temperature. Fixed epidermal sheets were stored in PBS at 4C.
Epidermal sheets were blocked and permeabilized by incubation in PB buffer containing 0.5% BSA 0.25% Fish skin gelatin, 0.5% Triton X-100 and Goat/Donkey/Rat serum as appropriate in PBS for 1 h. Primary antibodies were diluted in PB buffer and epidermal sections incubated overnight at room temperature on rocking platform then washed 4×1 h in PBS/0.2% Tween 20. Secondary antibodies were diluted 1:250 in PB buffer, sections incubated overnight, then washed 4×1 h. Samples were rinsed in distilled water and mounted. […]

[2] = system: Gli1; conditions: cultured keratinocytes; cited from earlier work
[3] = system: BCC and squamous carcinoma (SCC); conditions: cited from earlier work
[4] = system: BCC; conditions: topical, irradiated patched heterozygote mice; cited from earlier work

Structure (SMILES): CC1=C(/C=C/C(C)=C/C=C/C(C)=C/C(=O)O)C(C)(C)CCC1 [ATRA, all trans retinoic acid]
- effect on stem cell clones [1]: expansion of stem cell clones
- effect on transit amplifying cell clones [1]: rapid depletion of transit amplifying cell clones
- effect on Gli1 [2]: inhibition of Gli1

Structure (SMILES): COc1cc(C)c(/C=C/C(C)=C/C=C/C(C)=C/C(=O)O)c(C)c1C [acitretin]
- effect on SCC and BCC development ([3]; oral, renal transplant patients): may inhibit SCC and BCC development

Structure (SMILES): CC1=C(/C=C/C(C)=C/C=C/C(C)=C\C(=O)O)C(C)(C)CCC1 [isotretinoin]
- benefit in chemoprevention of BCC and squamous carcinoma (SCC) ([3]; clinical studies): no benefit

Structure (SMILES): CC1=C(/C=C/C(C)=C/C=C/C(C)=C/CO)C(C)(C)CCC1 [retinol]
- benefit in chemoprevention of BCC and squamous carcinoma (SCC) ([3]; clinical studies): no benefit

Structure (SMILES): CCOC(=O)c1ccc(C#Cc2ccc3c(c2)C(C)(C)CCS3)nc1 [tazarotene]
- effect on BCC ([3]; topical treatment, clinical studies): regression of BCC
- number of BCC induced by UV or ionizing radiation [4]: substantial decrease in the number of BCC
